Test results as given in US20230002374A1, “GPR52 MODULATOR COMPOUNDS” (Heptares Therapeutics Limited, priority 2019, published 2023).

Molecular target: human GPR52 (Homo sapiens, UniProt Q9Y2T5)
Experiment: GPR52 Agonist Functional cAMP Assay;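 note: HEKf cells transduced with GPR52 BacMam for 24 h, 2000 per well, exposed to compounds 30 min at 37° C with 0.5 mM IBMX, cAMP read by HTRF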
Settings: for Emax: maximal response normalised to DMSO (0%) and maximal compound 7m (J. Med. Chem., 2014, 57, 5226) response (100%); for EC50: pEC50 average, HEKf cells infected with human GPR52 BacMam virus, cAMP HTRF, 30 min at 37° C.
Procedure: Following BacMam infection, cells were pelleted by centrifugation (335 g, 5 min), resuspended in cell freezing medium (Sigma) and frozen at −150° C. until required. On experiment day, 25 nL GPR52 compound dilutions, prepared in DMSO, were stamped onto proxiplates (PerkinElmer) by a LabCyte ECHO acoustic dispenser. Frozen cells were thawed and resuspended in assay stimulation buffer (Cisbio) containing 0.5 mM 3-iso-butyl-1-methylxanthine (IBMX, Sigma) to achieve a density of 2000 cells per well. 10 μl cells were added to assay plates using a Multidrop Combi Reagent Dispenser (ThermoFisher) before centrifugation (335 g, 1 min). Cells were incubated with compounds at 37° C. for 30 min prior to addition of cAMP detection reagents (HiRange cAMP kit, Cisbio) which were prepared according to the manufacturer's instructions. Plates were shaken for 1 h at room temperature before reading on a PHERAstar FS plate reader (BMG Labtech) using standard HTRF settings.

Sequence of human GPR52 (Q9Y2T5 whole entry): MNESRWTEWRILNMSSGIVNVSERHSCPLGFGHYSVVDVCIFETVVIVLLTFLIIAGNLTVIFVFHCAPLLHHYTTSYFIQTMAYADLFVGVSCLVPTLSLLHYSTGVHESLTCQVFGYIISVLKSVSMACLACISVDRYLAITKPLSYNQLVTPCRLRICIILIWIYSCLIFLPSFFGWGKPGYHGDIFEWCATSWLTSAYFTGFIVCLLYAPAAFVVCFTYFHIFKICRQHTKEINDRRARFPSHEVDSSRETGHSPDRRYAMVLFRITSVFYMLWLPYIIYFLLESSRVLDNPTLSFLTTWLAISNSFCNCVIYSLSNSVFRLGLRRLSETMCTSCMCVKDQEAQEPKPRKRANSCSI

SMILES | Emax [%] | EC50 [µM]
CC1Cc2c(cnn2-c2ccnc(Cc3cc(F)cc(C(F)(F)F)c3)c2)C(=O)N1 (stereo not drawn) [Example 40, 1-(2-(3-fluoro-5-(trifluoromethyl)benzyl)pyridin-4-yl)-6-methyl-1,5,6,7-tetrahydro-4H-pyrazolo[4,3-c]pyridin-4-one] | 93 | 0.1
O=C1NCCCc2c1nnn2-c1cc(Cc2cccc(C(F)(F)F)c2)ccn1 [Example 41, 1-(4-(3-(trifluoromethyl)benzyl)pyridin-2-yl)-5,6,7,8-tetrahydro-[1,2,3]triazolo[4,5-c]azepin-4(1H)-one] | 90 | 0.794
O=C1NCCc2c1nnn2-c1cc(Cc2cccc(C(F)(F)F)c2)ccn1 [Example 42, 1-(4-(3-(trifluoromethyl)benzyl)pyridin-2-yl)-1,5,6,7-tetrahydro-4H-[1,2,3]triazolo[4,5-c]pyridin-4-one] | 90 | 0.794
O=C1NCCc2nn(-c3cc(Cc4cccc(C(F)(F)F)c4)ccn3)nc21 [Example 43, 2-(4-(3-(trifluoromethyl)benzyl)pyridin-2-yl)-2,5,6,7-tetrahydro-4H-[1,2,3]triazolo[4,5-c]pyridin-4-one] | 86 | 0.251
CN1CCc2nn(-c3cc(Cc4cccc(C(F)(F)F)c4)ccn3)nc2C1=O [Example 44, 5-methyl-2-(4-(3-(trifluoromethyl)benzyl)pyridin-2-yl)-2,5,6,7-tetrahydro-4H-[1,2,3]triazolo[4,5-c]pyridin-4-one] | 74 | 2
O=C1NCCCc2nn(-c3cc(Cc4cccc(C(F)(F)F)c4)ccn3)nc21 [Example 45, 2-(4-(3-(trifluoromethyl)benzyl)pyridin-2-yl)-5,6,7,8-tetrahydro-[1,2,3]triazolo[4,5-c]azepin-4(2H)-one] | 75 | 0.631
O=C1NCCCc2c1nnn2-c1cc(Cc2cc(F)cc(C(F)(F)F)c2)ccn1 [Example 46, 1-(4-(3-fluoro-5-(trifluoromethyl)benzyl)pyridin-2-yl)-5,6,7,8-tetrahydro-[1,2,3]triazolo[4,5-c]azepin-4(1H)-one] | 90 | 0.2
O=C1NOCc2c1cnn2-c1cc(Cc2cc(F)cc(C(F)(F)F)c2)ccn1 [Example 47, 1-(4-(3-fluoro-5-(trifluoromethyl)benzyl)pyridin-2-yl)-1,7-dihydropyrazolo[4,3-c/][1,2]oxazin-4(5H)-one] | 81 | 0.0794
CC1CNC(=O)c2cnn(-c3ccnc(Cc4cc(F)cc(C(F)(F)F)c4)c3)c21 (stereo not drawn) [Example 50, 1-(2-(3-fluoro-5-(trifluoromethyl)benzyl)pyridin-4-yl)-7-methyl-1,5,6,7-tetrahydro-4H-pyrazolo[4,3-c]pyridin-4-one] | 95 | 0.0398
O=C1NCCc2c1ccn2-c1ccnc(Cc2cc(F)cc(C(F)(F)F)c2)c1 [Example 51, 1-(2-(3-fluoro-5-(trifluoromethyl)benzyl)pyridin-4-yl)-1,5,6,7-tetrahydro-4H-pyrrolo[3,2-c]pyridin-4-one] | 95 | 0.126
O=C1NCCc2c1cnn2-c1ccnc(Oc2cc(F)cc(C(F)(F)F)c2)c1 [Example 52, 1-(2-(3-fluoro-5-(trifluoromethyl)phenoxy)pyridin-4-yl)-1,5,6,7-tetrahydro-4H-pyrazolo[4,3-c]pyridin-4-one] | 69 | 1.58
O=C1NCCc2c1cnn2-c1ccnc(Cc2cc(F)cc(C3CC3)c2)c1 [Example 53, 1-(2-(3-cyclopropyl-5-fluorobenzyl)pyridin-4-yl)-1,5,6,7-tetrahydro-4H-pyrazolo[4,3-c]pyridin-4-one] | 100 | 0.00631
O=C1NCCc2c1cnn2-c1ccnc(Cc2ccc(C(F)(F)F)c(F)c2)c1 [Example 54, 1-(2-(3-fluoro-4-(trifluoromethyl)benzyl)pyridin-4-yl)-1,5,6,7-tetrahydro-4H-pyrazolo[4,3-c]pyridin-4-one] | 63 | 0.398
COc1ccc(Cc2cc(-n3ncc4c3CCNC4=O)ccn2)cc1C(F)(F)F [Example 55, 1-(2-(4-methoxy-3-(trifluoromethyl)benzyl)pyridin-4-yl)-1,5,6,7-tetrahydro-4H-pyrazolo[4,3-c]pyridin-4-one] | 69 | 0.398
O=C1NCCc2c1cnn2-c1cc(Cc2cc(F)cc(C(F)(F)F)c2)ncn1 [Example 56, 1-(6-(3-fluoro-5-(trifluoromethyl)benzyl)pyrimidin-4-yl)-1,5,6,7-tetrahydro-4H-pyrazolo[4,3-c]pyridin-4-one] | 98 | 0.126
COc1cc(Cc2cc(-n3ncc4c3CCNC4=O)ccn2)cc(C(F)(F)F)c1 [Example 57, 1-(2-(3-methoxy-5-(trifluoromethyl)benzyl)pyridin-4-yl)-1,5,6,7-tetrahydro-4H-pyrazolo[4,3-c]pyridin-4-one] | 44 | 0.794
O=C1NCCc2c1cnn2-c1ccnc(Cc2cc(F)c(Cl)c(F)c2)c1 [Example 58, 1-(2-(4-chloro-3,5-difluorobenzyl)pyridin-4-yl)-1,5,6,7-tetrahydro-4H-pyrazolo[4,3-c]pyridin-4-one] | 79 | 0.1
O=C1NCCc2c1cnn2-c1ccnc(Cc2ccc3sccc3c2)c1 [Example 59, 1-(2-(benzo[b]thiophen-5-ylmethyl)pyridin-4-yl)-1,5,6,7-tetrahydro-4H-pyrazolo[4,3-c]pyridin-4-one] | 79 | 0.0794
COc1cc(Cc2cc(-n3ncc4c3CCNC4=O)ccn2)ccc1C(F)(F)F [Example 60, 1-(2-(3-methoxy-4-(trifluoromethyl)benzyl)pyridin-4-yl)-1,5,6,7-tetrahydro-4H-pyrazolo[4,3-c]pyridin-4-one] | 83 | 0.398

The next lines start with the values.

Emax [%] | EC50 [µM] | SMILES
99 | 0.0501 | O=C1NCCc2c1cnn2-c1ccnc(Cc2cc(F)cc(S(F)(F)(F)(F)F)c2)c1 [Example 61, 1-(2-(3-fluoro-5-(pentafluoro-λ^6-sulfaneyl)benzyl)pyridin-4-yl)-1,5,6,7-tetrahydro-4H-pyrazolo[4,3-c]pyridin-4-one]
94 | 0.0794 | O=C1NCCc2c1cnn2-c1ccnc(Cc2cc(F)cc(OC(F)F)c2)c1 [Example 62, 1-(2-(3-(difluoromethoxy)-5-fluorobenzyl)pyridin-4-yl)-1,5,6,7-tetrahydro-4H-pyrazolo[4,3-c]pyridin-4-one]
70 | 0.126 | O=C1NCCc2c1cnn2-c1ccnc(Cc2ccc(OC(F)F)c(F)c2)c1 [Example 63, 1-(2-(4-(difluoromethoxy)-3-fluorobenzyl)pyridin-4-yl)-1,5,6,7-tetrahydro-4H-pyrazolo[4,3-c]pyridin-4-one]
94 | 0.02 | O=C1NCCc2c1cnn2-c1ccnc(Cc2cc(F)c(F)c(C(F)(F)F)c2)c1 [Example 64, 1-(2-(3,4-difluoro-5-(trifluoromethyl)benzyl)pyridin-4-yl)-1,5,6,7-tetrahydro-4H-pyrazolo[4,3-c]pyridin-4-one]
100 | 0.0251 | O=C1NCCc2c1cnn2-c1ccnc(Cc2cc(F)c(F)c(Cl)c2)c1 [Example 66, 1-(2-(3-chloro-4,5-difluorobenzyl)pyridin-4-yl)-1,5,6,7-tetrahydro-4H-pyrazolo[4,3-c]pyridin-4-one]
53 | 1.58 | O=C1NCCc2c1cnn2-c1ccnc(Cc2cnc3ccccc3c2)c1 [Example 67, 1-(2-(quinolin-3-ylmethyl)pyridin-4-yl)-1,5,6,7-tetrahydro-4H-pyrazolo[4,3-c]pyridin-4-one]
60 | 0.126 | O=C1NCCc2c1cnn2-c1ccnc(Cc2cc3ccccc3s2)c1 [Example 69, 1-(2-(benzo[b]thiophen-2-ylmethyl)pyridin-4-yl)-1,5,6,7-tetrahydro-4H-pyrazolo[4,3-c]pyridin-4-one]
74 | 0.316 | O=C1NCCc2c1cnn2-c1ccnc(Cc2cc(F)c(C(F)(F)F)c(F)c2)c1 [Example 70, 1-(2-(3,5-difluoro-4-(trifluoromethyl)benzyl)pyridin-4-yl)-1,5,6,7-tetrahydro-4H-pyrazolo[4,3-c]pyridin-4-one]
91 | 0.02 | CC(C)c1cc(F)cc(Cc2cc(-n3ncc4c3CCNC4=O)ccn2)c1 [Example 71, 1-(2-(3-fluoro-5-isopropylbenzyl)pyridin-4-yl)-1,5,6,7-tetrahydro-4H-pyrazolo[4,3-c]pyridin-4-one]
83 | 1.26 | COc1ncc(Cc2cc(-n3ncc4c3CCNC4=O)ccn2)cc1F [Example 72, 1-(2-((5-fluoro-6-methoxypyridin-3-yl)methyl)pyridin-4-yl)-1,5,6,7-tetrahydro-4H-pyrazolo[4,3-c]pyridin-4-one]
88 | 0.0501 | O=C1NCCc2c1cnn2-c1ccnc(Cc2cc(Cl)c(F)c(C(F)(F)F)c2)c1 [Example 73, 1-(2-(3-chloro-4-fluoro-5-(trifluoromethyl)benzyl)pyridin-4-yl)-1,5,6,7-tetrahydro-4H-pyrazolo[4,3-c]pyridin-4-one]
53 | 0.501 | O=C1NCCc2c1cnn2-c1ccnc(Cc2cc(F)cc(C3(C(F)(F)F)CC3)c2)c1 [Example 74, 1-(2-(3-fluoro-5-(1-(trifluoromethyl)cyclopropyl)benzyl)pyridin-4-yl)-1,5,6,7-tetrahydro-4H-pyrazolo[4,3-c]pyridin-4-one]
94 | 0.0794 | Cc1cc(Cc2cc(-n3nc(C)c4c3CCNC4=O)ccn2)cnc1F [Example 76, 1-(2-((6-fluoro-5-methylpyridin-3-yl)methyl)pyridin-4-yl)-3-methyl-1,5,6,7-tetrahydro-4H-pyrazolo[4,3-c]pyridin-4-one]
95 | 0.0158 | Cc1nn(-c2ccnc(Cc3cc(F)c(F)c(F)c3)c2)c2c1C(=O)NCC2 [Example 77, 3-methyl-1-(2-(3,4,5-trifluorobenzyl)pyridin-4-yl)-1,5,6,7-tetrahydro-4H-pyrazolo[4,3-c]pyridin-4-one]
